Measurements published in the METLIN SMRT retention time set (Domingo-Almenara et al. 2019).

Experiment: gradient 5% acetonitrile 3 min, to 50% in 2 min, to 85% in 15 min, held 3 min, 100 µL/min
Settings: column: Zorbax Extend-C18 2.1 x 50 mm; eluents: water / acetonitrile, 0.1% formic acid
How it was run: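 Retention time was recorded from adduct peaks, which were picked computationally and each inspected manually. Pure standards ran in mixtures of ~100 molecules on HPLC coupled to a quadrupole time-of-flight mass spectrometer, in positive and negative ionization mode, through a Zorbax Extend-C18 column (2.1 × 50 mm, 1.8 μm) at 100 μL/min. Eluents were water and acetonitrile, each with 0.1% formic acid.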

Molecule `Cc1noc(C)c1-c1ccc(S(=O)(=O)N2CCN(c3ccccn3)CC2)cc1` has an RP-LC retention time of 676 s.
`CCC(=O)N1CCC([C@H]2[C@@H](OC)C(=O)N2C(C)C)CC1` showed an RP-LC retention time of 644 s.
`COc1cc(CC(=O)N2CCN(c3cc(C)n4cnnc4n3)CC2)cc(OC)c1` showed an RP-LC retention time of 607 s.
Molecule `Cc1ccc(C)c(Sc2ccc(N3CCC(C(=O)NC4CC4)CC3)nn2)c1` has an RP-LC retention time of 713 s.
For `CCn1nc(C)c(CCN(C)C(=O)Nc2ccccc2Br)c1C`, the RP-LC retention time was 705 s.
Molecule `CCOC(=O)c1c(S(=O)(=O)N2CCC(C(=O)Nc3ccc(F)cc3C)CC2)c(C)n(CC)c1C` has an RP-LC retention time of 885 s.
Molecule `COc1cc(CN2CCC3(CC2)CC(C)(O)CCO3)cc(OC)c1` (stereo not given) has an RP-LC retention time of 561 s.
Work on `C=CCN1C(=O)COc2ccc(-c3csc(NC(=O)CCC4CCCCC4)n3)cc21` yielded an RP-LC retention time of 1210 s.
Molecule `CCC(CC)NC(=O)[C@@H]1[C@H](c2cc(OC)c(OC)c(OC)c2)c2cc3c(cc2[C@H](O)[C@H]1CO)OCO3` has an RP-LC retention time of 692 s.
In the case of `O=C(Nc1cnc(-c2cccc(Cl)c2)nc1)c1nccc2ccccc12`, the RP-LC retention time was 1370 s.
With `CCC(C)NC(=O)N1CCN(c2nc3ccccc3n(Cc3ccccc3)c2=O)CC1` (stereo not given) the RP-LC retention time was 981 s.
In the case of `O=C(Nc1ccc(Br)cc1)N1CCCC1c1nc(-c2ccc(F)cc2F)no1` (stereo not given), the RP-LC retention time was 1050 s.
With `COCCCNC(=O)N1CCCN(C2=NS(=O)(=O)C(c3ccccc3)=C2C)CC1` the RP-LC retention time was 679 s.
`Cc1nn2c(N3CCN(c4ccccn4)CC3)c3c(nc2c1-c1ccccc1)CCC3` showed an RP-LC retention time of 720 s.
`CCn1cc(C(=O)Nc2ccc(C)cc2Cl)c2cccnc21` showed an RP-LC retention time of 984 s.
With `CC1(C(=O)NC2CCCCCCC2)CN(S(C)(=O)=O)CC(=O)N1c1ccc(F)cc1` (stereo not given) the RP-LC retention time was 884 s.
With `CS(=O)(=O)N1CCC(OC2CCN(C(=O)Nc3ccccc3)CC2)CC1` the RP-LC retention time was 709 s.
Molecule `O=C(NCCCc1ccccc1)C1(CCO)CCN(c2ncccn2)C1` (stereo not given) has an RP-LC retention time of 651 s.
Molecule `Cc1nnc(C2CCCCCN2C(=O)c2cnco2)o1` (stereo not given) has an RP-LC retention time of 618 s.
`COc1ccc(CN2CCc3nc(N4CCOCC4)ncc3C2)c(OC)c1` gave an RP-LC retention time of 611 s.
Work on `CC(C)C(NC(=O)c1cccc(C#N)c1)C(=O)N1CCN(c2ccccn2)CC1` (stereo not given) yielded an RP-LC retention time of 620 s.
In the case of `CN(Cc1ccccc1)C(=O)CN1C(=O)CCCc2cc(S(=O)(=O)N3CCCCC3)ccc21`, the RP-LC retention time was 907 s.
In the case of `Cc1nc2cc(N3CCC(C(=O)NCc4cccs4)CC3)cnc2nc1C`, the RP-LC retention time was 670 s.
Work on `Cc1cc(NC(=O)Cn2ccn3nc(-c4ccc(F)cc4)c(CO)c3c2=O)no1` yielded an RP-LC retention time of 727 s.
In the case of `COc1ccc(S(=O)(=O)N2CCC(n3cnnc3C)CC2)cc1Cl`, the RP-LC retention time was 694 s.
With `Cc1sc2ccn(CC(C)C)c(=O)c2c1C(=O)O` the RP-LC retention time was 863 s.
Molecule `O=C(Cn1nc(N2CCCCCC2)c2ccccc2c1=O)NC1CCc2ccccc21` (stereo not given) has an RP-LC retention time of 1120 s.
In the case of `O=S(=O)(c1cccc(Cl)c1)c1nnn2c1nc(N1CCCC1)c1sccc12`, the RP-LC retention time was 925 s.
`O=C(NCCc1ccccc1)N1CCC(c2noc(-c3cnccn3)n2)C1` (stereo not given) gave an RP-LC retention time of 715 s.
Work on `CCCCN(C)c1ncc(C(=O)Nc2ccccc2)c(N)n1` yielded an RP-LC retention time of 702 s.
`CCCCN(C)CCNC(=O)C1c2ccccc2C(=O)N2CCc3cc(OC)c(OC)cc3C12` (stereo not given) gave an RP-LC retention time of 633 s.
Molecule `CCOC(=O)c1ccc(NC(=O)CCc2c(-c3ccc(F)cc3)nc3ccccn23)cc1` has an RP-LC retention time of 700 s.
`Cc1ccc(-c2nocc2CCC(=O)NC(C)c2ccc(F)cc2)cc1` (stereo not given) showed an RP-LC retention time of 953 s.
`COC(=O)C1=C(C)NC(C)=C(C(=O)OCCSc2ccccc2)C1C` (stereo not given) showed an RP-LC retention time of 1080 s.
Work on `Cc1nc(Nc2ncc(C(=O)Nc3c(C)cccc3Cl)s2)cc(N2CCN(CCO)CC2)n1` yielded an RP-LC retention time of 682 s.
In the case of `Cc1ccc(C)c(-c2csc(Nc3ccc(Cl)cc3)n2)c1`, the RP-LC retention time was 1340 s.
Molecule `Cc1cc(C)n(CCNC(=O)Cc2ccc(SC(C)C)cc2)n1` has an RP-LC retention time of 755 s.
`CC(C)n1cnc2cc(CNC(=O)c3ccc(C#N)cc3)ccc21` gave an RP-LC retention time of 619 s.
With `Cn1cc(-c2cc3n(n2)CCC(=O)N3CC(=O)NC2CCCc3ccccc32)c2ccccc21` (stereo not given) the RP-LC retention time was 882 s.
With `Cc1nc(-c2cccc(NC(=O)c3cccc(F)c3)c2)cs1` the RP-LC retention time was 856 s.
In the case of `O=C(CSc1nc2scc(-c3ccccc3)c2c(=O)[nH]1)c1ccccc1`, the RP-LC retention time was 936 s.
For `Cc1ccc(-n2nc(N3CCCN(S(=O)(=O)Cc4ccccc4)CC3)ccc2=O)cc1C`, the RP-LC retention time was 912 s.
Work on `COc1ccccc1-c1noc(C2CCCN2C(=O)Nc2ccc(F)cc2F)n1` (stereo not given) yielded an RP-LC retention time of 840 s.
With `CCCC(=O)Nc1ccc2nc(N3CCN(CC(=O)NCCOC)CC3)cc(C(=O)O)c2c1` the RP-LC retention time was 839 s.
`Cc1ccc(N2C(=O)CCS2(=O)=O)cc1S(=O)(=O)N1c2ccccc2CC1C` (stereo not given) showed an RP-LC retention time of 867 s.
For `Cc1cccc(-c2nc(CN(c3ccccc3)S(=O)(=O)c3cccs3)c(C)o2)c1`, the RP-LC retention time was 1240 s.
Work on `CCCCCCCCCCNCCSSCc1ccc(Cl)cc1` yielded an RP-LC retention time of 1120 s.
Molecule `COc1nccnc1N1CCC(N(C)C(=O)c2ccc3c(c2)OCO3)C1` (stereo not given) has an RP-LC retention time of 694 s.
Work on `O=C(NCc1cccc(Br)c1)C1CCCN(c2cnc3nccnc3c2)C1` (stereo not given) yielded an RP-LC retention time of 739 s.
Work on `Cc1ccc(-c2ccc(-n3nc(C)c(S(=O)(=O)N4CCCC(C)C4)c3C)nn2)cc1` (stereo not given) yielded an RP-LC retention time of 1230 s.
With `O=C(Nc1cnc(-c2cccc(Cl)c2)nc1)c1ccccc1` the RP-LC retention time was 1070 s.
For `COc1cc(-c2nc3ccc(Cl)cn3c2Nc2ccc(C)cc2)ccc1O`, the RP-LC retention time was 730 s.
Molecule `Cc1cc(N2CCN(C(=O)c3ccc(Cl)cc3)CC2)nc(N2CCOCC2)n1` has an RP-LC retention time of 639 s.
Work on `CN(C)C(CNC(=O)C1(c2ccccc2)CCOCC1)c1cn(C)c2ccccc12` (stereo not given) yielded an RP-LC retention time of 588 s.
In the case of `CCC(=O)N1CCc2c(-c3ccc(OC)cc3)cccc2[C@H]1C`, the RP-LC retention time was 1030 s.
`CC1CCN(CCNC(=O)C2CCCN(c3ncnc4c3nc3n4CCCCC3)C2)CC1` (stereo not given) showed an RP-LC retention time of 599 s.
Work on `CCCN1C(=O)COc2ccc(-c3csc(NC(=O)c4c(OC)cccc4OC)n3)cc21` yielded an RP-LC retention time of 944 s.
Work on `COCCn1cc(CC(=O)NC(C)C)c2cccnc21` yielded an RP-LC retention time of 601 s.
With `O=C(Nc1ccc(F)cc1)N1CCN(c2ccc(C(F)(F)F)cn2)CC1` the RP-LC retention time was 921 s.
Work on `CC(=O)N1CCC([C@@H]2CN(C(=O)c3ccc(Br)o3)C[C@H]2CO)CC1` yielded an RP-LC retention time of 622 s.
Work on `CCn1c(-c2ccccc2)cc(C(=O)NC)c1C` yielded an RP-LC retention time of 807 s.
In the case of `CN(CCc1noc(-c2ccc(C(=O)NC3CCCC3)cc2)n1)C(=O)c1ccccc1F`, the RP-LC retention time was 839 s.
For `CCC(=O)NCc1nc2c(n1CC)CN(C(=O)c1ccccc1C(F)(F)F)CC2`, the RP-LC retention time was 594 s.
Molecule `CC1CCN(S(=O)(=O)c2cc(C(=O)N3CCN(c4ccc(F)cc4)CC3)n(C)c2)CC1` has an RP-LC retention time of 1010 s.
`O=C(NCC1CCN(S(=O)(=O)C2CC2)CC1)C1(c2ccc(F)cc2)CC1` showed an RP-LC retention time of 595 s.
Molecule `CCNC(=O)CN1C(=O)CCSc2ccccc21` has an RP-LC retention time of 664 s.
For `Cc1ccc(CN(CC(=O)N2CCNCC2)C(=O)c2sccc2C)cc1`, the RP-LC retention time was 720 s.
For `O=c1n(CCOc2ccccc2)nc2ccc(S(=O)(=O)N3CCOCC3)cn12`, the RP-LC retention time was 792 s.
`Cc1ccc(-c2nc(C3CC(=O)N(C4CCCCC4)C3)no2)cn1` (stereo not given) showed an RP-LC retention time of 771 s.
Work on `Cc1ccc(NC(=O)c2nc(C)oc2C)c(F)c1` yielded an RP-LC retention time of 946 s.
`COC(=O)c1cn(CC(=O)N2CCc3ccccc32)c2ccccc12` showed an RP-LC retention time of 974 s.
In the case of `COCCN1C(=O)c2ccccc2C(C(=O)NCCCN2CCCCC2C)C1c1cccs1` (stereo not given), the RP-LC retention time was 624 s.
Work on `CCC(CO)Nc1ncnc2c1cnn2-c1ccc(C)c(Cl)c1` (stereo not given) yielded an RP-LC retention time of 761 s.
Molecule `CCCC(=O)N1CCC2(CC1)C(=O)N(C)c1ccccc12` has an RP-LC retention time of 764 s.
Work on `CCN1C(=O)COc2ccc(-c3noc(CNS(=O)(=O)c4ccc(F)cc4)n3)cc21` yielded an RP-LC retention time of 860 s.
For `CC(C)C(NC(=O)Nc1ccc2c(c1)OCO2)C(=O)N1CCc2ccccc21` (stereo not given), the RP-LC retention time was 898 s.
`C=CCN(c1ccccc1)c1nc(C(=O)OCC)nc2ccccc12` showed an RP-LC retention time of 1000 s.
For `Cc1ccccc1N1CCN(C(=O)CCC2CCN(c3cc(NC4CC4)ncn3)CC2)CC1`, the RP-LC retention time was 768 s.
For `CCOC(=O)C1CCCN(Cc2nc3nc(C)cc(N4CCCCCC4)n3n2)C1` (stereo not given), the RP-LC retention time was 620 s.
Work on `CCc1ccc(-c2noc(CN3C(=O)COc4ccc(C)cc43)n2)cc1` yielded an RP-LC retention time of 1160 s.
With `Cc1ccc(-c2noc(Cc3nnc(-c4cc(C)cc(C)c4)o3)n2)cc1` the RP-LC retention time was 1190 s.
`COc1cc(OC)c(C(=O)CCCCN2CCC3(CC2)NC(=O)NC3=O)cc1NS(=O)(=O)c1ccc(C(F)(F)F)cc1` showed an RP-LC retention time of 750 s.
Work on `Cc1[nH]c(C(=O)N2CCCC(C(=O)NC3CCCCC3)C2)c(C)c1C(=O)OC(C)C` (stereo not given) yielded an RP-LC retention time of 861 s.
`Cc1cncn(CC(=O)NC2CCCC2)c1=O` gave an RP-LC retention time of 576 s.
Molecule `CC(C)Cn1cc(S(=O)(=O)N2CCSCC2)c2cccnc21` has an RP-LC retention time of 969 s.
`COc1ccccc1-c1nc(C2CC(=O)N(c3ccc(F)cc3)C2)no1` (stereo not given) gave an RP-LC retention time of 926 s.
`Cc1ccc(CN2C(=O)COC[C@H]2C(=O)Nc2ccc3c(c2)OCCO3)cc1` gave an RP-LC retention time of 780 s.
In the case of `O=C(c1ccc(S(=O)(=O)NCc2cccnc2)o1)N1CCN(c2ccccc2F)CC1`, the RP-LC retention time was 624 s.
For `Cc1cccc(OCCc2noc(C3CCN(S(=O)(=O)N(C)C)C3)n2)c1` (stereo not given), the RP-LC retention time was 978 s.
In the case of `Cc1ccn2c(NC(=O)c3ccc(Cl)cc3)c(-c3ccc(F)cc3)nc2c1`, the RP-LC retention time was 693 s.
